Target: T1, OfurPBP2 (Ostrinia furnacalis pheromone binding protein 2) (Ostrinia furnacalis, UniProt E7CCA0)
T1 construct: gene PBP2; full-length OfurPBP2, recombinant soluble (E. coli Origami 2), delipidated, pH 6.5
T1 sequence (E7CCA0 23-166): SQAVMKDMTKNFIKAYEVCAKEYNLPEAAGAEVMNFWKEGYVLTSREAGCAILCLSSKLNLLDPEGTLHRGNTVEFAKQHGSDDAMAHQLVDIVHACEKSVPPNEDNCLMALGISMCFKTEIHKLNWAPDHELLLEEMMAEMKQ
Assay: fluorescence titration of the NPN probe (emission at […] nm), single-site fit

Compound: c1ccc(Nc2cccc3ccccc23)cc1 [N-phenyl-1-naphthylamine]
- Kd: 6.49 ± 1.01 µM

— article PMC6244159, “Structure and Function Studies of Asian Corn Borer Ostrinia furnacalis Pheromone Binding Protein2” (Scientific Reports, 2018)
